Experimental data reported in patent publication US20030003088A1, “Human pancreatic pluripotential stem cell line” (Board of Trustees operating Michigan State University, priority 2001, published 2003).
“Also recorded” adds a separate entry of the source.

Columns and labels:
HPDE6c7 cells [1] = assay: Assay (B): inhibition of forskolin-induced GJIC, Lucifer yellow dye transfer, PAH given only at time −30 min; conditions: for GJIC, Average (% change over control at −30 min), −30 min / GJIC, Average (% change over control at −30 min), 0 hr / GJIC, Average (% change over control at −30 min), 24 hr / GJIC, Average (% change over control at −30 min), 48 hr / GJIC, Average (% change over control at −30 min), 72 hr: 70 μM PAH given at time −30 min only; for GJIC, Average (% change over control at −30 min), −30 min: at time of addition; for GJIC, Average (% change over control at −30 min), 0 hr / GJIC, Average (% change over control at −30 min), 24 hr / GJIC, Average (% change over control at −30 min), 48 hr / GJIC, Average (% change over control at −30 min), 72 hr: forskolin 5 μM
HPDE6c7 cells [2] = assay: Assay (A): inhibition of forskolin-induced GJIC, Lucifer yellow dye transfer, PAH given at every medium change; type: cell-based, human; conditions: for GJIC, Average (% change over control at −30 min), −30 min / GJIC, Average (% change over control at −30 min), 0 hr / GJIC, Average (% change over control at −30 min), 24 hr / GJIC, Average (% change over control at −30 min), 48 hr / GJIC, Average (% change over control at −30 min), 72 hr: 70 μM PAH given at every medium change; for GJIC, Average (% change over control at −30 min), −30 min: at time of addition; for GJIC, Average (% change over control at −30 min), 0 hr / GJIC, Average (% change over control at −30 min), 24 hr / GJIC, Average (% change over control at −30 min), 48 hr / GJIC, Average (% change over control at −30 min), 72 hr: forskolin 5 μM; for inhibition of GJIC induced by forskolin: 70 μM, PAH at every medium change
HPDE6c7 cells [3] = assay: GJIC competence under c-AMP elevating agents, Lucifer yellow dye transfer; type: cell-based, human; conditions: in KBM, 48 hours
Protocol: The ability of the HPDE6c7 cells to communicate via gap junctions under various growth conditions was measured using the lucifer yellow dye transfer method as developed by El-Fouly et al. (Exp. Cell Res. 168: 422-430 (1987)). Briefly, near confluent cultures of the cells grown as in Example 1 were subjected to the desired treatment, either growth in KBM or KBM containing c-AMP elevating agents such as forskolin or forskolin and 3-isobutyl-1-methylxanthine (IBMX), both from Sigma Chemical Co., St. Louis, Mo. Then, lucifer yellow was loaded into the cells by making two or three scrape lines in the monolayer with a sharp scalpel. […] Quantifying the extent of communication was done using an image analysis program.

HPDE6c7 cells [4] = assay: Induction of insulin production / release into the media; type: cell-based, human; conditions: for synthesis and release of insulin / appearance of insulin in the media: preliminary data
[5] = tested on: insulin promoter in HPDE6c7 cells; assay: Insulin promoter activity, AdINSGFP (GFP under insulin promoter) infected cells; type: cell-based, human
Protocol: To determine whether the insulin promoter in the HPDE6c7 cells is active, the cells were infected with adenovirus AdINSGFP, a virus vector that expresses the Green Fluorescence Protein (GFP) under the regulation of the insulin promoter.
Nicotinamide is known to affect cell differentiation. Therefore, the effect of nicotinamide on the activity of the insulin promoter in HPDE6c7 cells was determined. The […] cells were plated on plastic cell culture dishes for two days. Then the cells were infected with about 50 pfu/cell AdINSGFP for one hour. Afterwards, the cells were washed and incubated for three days in KBM containing 10 mM nicotinamide.

HPDE6c7 cells [6] = assay: Growth of cells in culture with growth factors; type: cell-based, human

Cc1cccc2cc3ccccc3cc12 [1-MeA, 1-methylanthracine]
GJIC, Average (% change over control at −30 min), −30 min (HPDE6c7 cells [1]): 100.00% | GJIC, Average (% change over control at −30 min), 0 hr (HPDE6c7 cells [1]): 77.04% | GJIC, Average (% change over control at −30 min), 24 hr (HPDE6c7 cells [1]): 233.32% | GJIC, Average (% change over control at −30 min), 48 hr (HPDE6c7 cells [1]): 246.93% | GJIC, Average (% change over control at −30 min), 72 hr (HPDE6c7 cells [1]): 261.32% | lethal effects on the cells / cytotoxicity (HPDE6c7 cells [1]; 70 μM, PAH at −30 min only): no lethal effects; also recorded: not cytotoxic | reversibility of the inhibition of GJIC (HPDE6c7 cells [1]; 70 μM, PAH at −30 min only): reversible | GJIC, Average (% change over control at −30 min), −30 min (HPDE6c7 cells [2]): 100.00% | GJIC, Average (% change over control at −30 min), 0 hr (HPDE6c7 cells [2]): 89.37% | GJIC, Average (% change over control at −30 min), 24 hr (HPDE6c7 cells [2]): 92.24% | GJIC, Average (% change over control at −30 min), 48 hr (HPDE6c7 cells [2]): 81.77% | GJIC, Average (% change over control at −30 min), 72 hr (HPDE6c7 cells [2]): 212.39% | inhibition of GJIC induced by forskolin (HPDE6c7 cells [2]): inhibited GJIC that had been induced by forskolin

Cc1ccc2cc3ccccc3cc2c1 [2-MeA, 2-methylanthracine]
GJIC, Average (% change over control at −30 min), −30 min (HPDE6c7 cells [1]): 100.00% | GJIC, Average (% change over control at −30 min), 0 hr (HPDE6c7 cells [1]): 89.95% | GJIC, Average (% change over control at −30 min), 24 hr (HPDE6c7 cells [1]): 265.70% | GJIC, Average (% change over control at −30 min), 48 hr (HPDE6c7 cells [1]): 260.89% | GJIC, Average (% change over control at −30 min), 72 hr (HPDE6c7 cells [1]): 260.89% | GJIC, Average (% change over control at −30 min), −30 min (HPDE6c7 cells [2]): 100.00% | GJIC, Average (% change over control at −30 min), 0 hr (HPDE6c7 cells [2]): 102.06% | GJIC, Average (% change over control at −30 min), 24 hr (HPDE6c7 cells [2]): 197.60% | GJIC, Average (% change over control at −30 min), 48 hr (HPDE6c7 cells [2]): 227.15% | GJIC, Average (% change over control at −30 min), 72 hr (HPDE6c7 cells [2]): 271.19% | inhibition of GJIC induced by forskolin (HPDE6c7 cells [2]): did not

C=C[C@@]1(C)CC(=O)[C@]2(O)[C@@]3(C)[C@@H](O)CCC(C)(C)[C@@H]3[C@H](O)[C@H](OC(C)=O)[C@@]2(C)O1 [forskolin]
increase in GJIC relative to complete keratinocyte serum-free medium (KSFM) (HPDE6c7 cells [3]): 2.2 fold

NC(=O)c1cccnc1 [nicotinamide]
induction of insulin production (HPDE6c7 cells [4]): induce the HPDE6c7 cells to produce insulin | synthesis and release of insulin / appearance of insulin in the media (HPDE6c7 cells [4]): appear to synthesize and release insulin | activation of the insulin promoter (GFP expressing cells) ([5]; 10 mM in KBM, three days): induces a substantial number of cells to activate the insulin promoter

cholera toxin
induction of insulin production (HPDE6c7 cells [4]): induce the HPDE6c7 cells to produce insulin

hepatocyte growth factor: growth factor (mitogen)
synthesis and release of insulin / appearance of insulin in the media (HPDE6c7 cells [4]): appear to synthesize and release insulin | growth of the cells (HPDE6c7 cells [6]): an increase in growth of the cells

sonic hedgehog
induction of insulin production (HPDE6c7 cells [4]): induce the HPDE6c7 cells to produce insulin | turning on the promoter for the insulin gene [5]: can turn on the promoter for the insulin gene

B1: beta-cellulin: growth factor (mitogen) (protein, UniProt P35070 32-111, looked up)
Betacellulin: DGNSTRSPETNGLLCGDPEENCAATTTQSKRKGHFSRCPKQYKHYCIKGRCRFVVAEQTPSCVCDEGYIGARCERVDLFY
growth of the cells (HPDE6c7 cells [6]): an increase in growth of the cells
